# Measurements: patent US20260297118A1, “SUBSTITUTED PYRIMIDINONE AND AZAPYRIMIDINONE COMPOUNDS, COMPOSITIONS, AND USES THEREOF” (LAKEWOOD AMEDEX, INC., priority 2023, published 2026)
# Key:
# Type in all cases: cell-based
# Details in all cases: pH 4-5, 18 to 24 hours
# Escherichia coli (6259) = assay: MIC, broth microdilution, Escherichia coli (6259)
# Method: (§1) MIC testing is conducted using the broth (Mueller Hinton Broth) microdilution procedures relevant to each organism group as established by the Clinical and Laboratory Standards Institute (CLSI; 3-7). MIC plates are prepared in accordance with CLSI (3-7). To prepare the test plates, automated liquid handlers are used to conduct serial dilutions and liquid transfers. Automated liquid handlers utilized in this study include the Multidrop 384 (Labsystems, Helsinki, Finland) and the Biomek 2000 (Beckman Coulter, Fullerton CA). The solution is diluted to desired pH using 1 M Citric Acid or 1 M NaOH buffer. A standardized inoculum of each test organism is prepared per CLSI methods (3, 5-7) to equal a 0.5 McFarland standard in the appropriate media followed by an additional 1:20 dilution (1:10 for anaerobes).
# (§2) The plates are then inoculated with 10 μL of the diluted 0.5 McFarland suspension using the Biomek 2000 from low to high drug concentration, resulting in a final concentration of approximately 5×10^5 CFU/mL per well. An un-inoculated plate is incubated for the purpose of assessing solubility of the drug in the test media. The plates are stacked 3 to 4 high, covered with a sterile lid on the top plate, and incubated for 18 to 24 hours according to CLSI. The MIC is recorded as the lowest concentration of respective compound that inhibited visible growth of the organism.
# Escherichia coli (6260) = assay: MIC, broth microdilution, Escherichia coli (6260)
# Method: as §1, §2
# [1] = tested on: Pseudomonas aeruginosa (6234); assay: MIC, broth microdilution, Pseudomonas aeruginosa (6234)
# Method: as §1, §2
# [2] = tested on: Pseudomonas aeruginosa (6328); assay: MIC, broth microdilution, Pseudomonas aeruginosa (6328)
# Method: as §1, §2
# Escherichia coli (6258) = assay: MIC, broth microdilution, Escherichia coli (6258)
# Method: as §1, §2
# Escherichia coli (6098) = assay: MIC, broth microdilution, Escherichia coli (6098)
# Method: as §1, §2
# Escherichia coli (0102) = assay: MIC, broth microdilution, Escherichia coli (0102)
# Method: as §1, §2
# [3] = tested on: Pseudomonas aeruginosa (0103); assay: MIC, broth microdilution, Pseudomonas aeruginosa (0103)
# Method: as §1, §2
# [4] = tested on: Pseudomonas aeruginosa (6326); assay: MIC, broth microdilution, Pseudomonas aeruginosa (6326)
# Method: as §1, §2
# [5] = tested on: Pseudomonas aeruginosa (6160); assay: MIC, broth microdilution, Pseudomonas aeruginosa (6160)
# Method: as §1, §2
Structure (SMILES),MIC (Escherichia coli (6259)) [mg/mL],MIC (Escherichia coli (6260)) [mg/mL],MIC [1] [mg/mL],MIC [2] [mg/mL],MIC (Escherichia coli (6258)) [mg/mL],MIC (Escherichia coli (6098)) [mg/mL],MIC (Escherichia coli (0102)) [mg/mL],MIC [3] [mg/mL],MIC [4] [mg/mL],MIC [5] [mg/mL]
"CCCCOP(=O)(O)OC[C@H]1O[C@@H](n2ccc(N)nc2=O)[C@H](OC)[C@@H]1O [R-5, (2R,3S,4R,5R)-5-(4-amino-2-oxopyrimidin-1(2H)-yl)-3-hydroxy-4-methoxy-tetrahydrofuran-2-methyl butyl phosphate]",50,100,25,25,100,100,50,25,25,25
"CCCCOP(=O)(O)OC[C@H]1O[C@@H](n2ccc(N)nc2=O)C[C@@H]1O [R-1, (2R,3S,5R)-5-(4-amino-2-oxopyrimidin-1(2H)-yl)-3-hydroxytetrahydrofuran-2-methyl butyl phosphate]",50,50,25,25,50,50,50,25,25,25
